Data on 13 compounds can be found in patent EP2746253A1, “Novel compounds with skin lightening properties” (Unilever PLC, priority 2012, dated 2014).

In one assay the test system is Melanoderms™. Put plainly: Pigment production by Living Skin Equivalents (Melanoderms). It counts as cell-based. The settings on record: Homo sapiens, 336 h, 14 days, normalized to protein levels, read-out: Inhibition of melanin production (%) in Melanoderms™ compared to control. The text has this: So called reconstructed pigmented 'skin' cultures containing keratinocytes and melanocytes are commercially available and for example can be purchased from MatTek Corp, 200, Homer Avenue, Ashland, MA, USA, under the trade name Melanoderm™. Melanoderms™ (catalogue reference MEL-300) containing melanocytes from […] donor skin were maintained in EPI-100-NMM113 media following the manufacturer's instructions and using standard methods for the maintenance of cultured mammalian cells under aseptic conditions. The Melanoderm™ cultures were treated with test agents for a total of 14 days. During the 14 day culture period the melanocytes in the Melanoderm™ cultures synthesise melanin in specialised vesicular structures called melanosomes. The pigmented melanosomes are transferred to the adjacent keratinocytes and the transferred-melanosomes tend to accumulate over the nucleus of the keratinocytes. This process is the same as occurs in skin in vivo and accordingly the Melanoderm™ culture is considered to be a very good test 'skin tissue' to mimic the effect of the skin pigmentation process in vivo. A compound that leads to a reduction in melanin production in the Melanoderm™ culture over 14 days by 10 % or more is considered to have a positive pigment reducing effect. It is important that the reduction in pigment occurs without substantive loss of cell viability such that the inhibitory effect of the test compound is due to its biological function rather than due to cell toxicity.
Culture media changes and re-dosing of compounds at selected concentrations took place every 2 or 3 days during the test period. Melanoderm™ cultures were also treated with control materials including the vehicle (dimethylsulphoxide; DMSO) used to dissolve the test material and a positive control material known to lead to the synthesis of reduced amounts of melanin in the cultures. Ketoconazole and/or 4-ethylresorcinol were used as positive controls. After 14 days culture, transmitted-light microscopy images were captured for every culture using a Leica DM IL microscope at x20 magnification.
The cell viability of the cultures was assessed using the so called WST-1 (Water Soluble Tetrazolium Salt -1) assay purchased from Roche Applied Science and following the manufacturer's instructions. The stable tetrazolium salt WST-1 is cleaved to a soluble formazan dye by a complex cellular mechanism that occurs primarily at the cell surface. This bioreduction is largely dependent on the glycolytic production of NADPH in viable cells. Therefore, the amount of soluble formazan dye formed in the culture medium directly correlates to the number of metabolically active cells in the culture. Cultures were incubated with WST-1 in the medium for 1 hour and production of formazan measured at 450 nm using a spectrophotometer plate reader, eg a BMG Labtech FLUOstar plate reader. Cultures were considered 'viable' if they generated greater than 80 % of the control value of formazan product. Subsequently the culture was washed briefly in phosphate buffer solution (PBS) and total melanin and protein extracted together from each culture using 250 µl Solvable (trademark, Perkin Elmer product 6NE9100) reagent at 60°C overnight as recommended by the manufacturer. The total protein content using a sample of the extracts was determined using the so called BCA (bicinchoninic acid) assay. The BCA assay may be purchased from Pierce Chemical Company and conducted following the manufacturer's instructions. Melanin was determined by measuring the absorbance at 485 nm, for example using a BMG Labtech FLUOstar plate reader. The amount of melanin extracted from each culture was determined by reference to a standard synthetic-melanin curve (Sigma Aldrich Chemical Co; catalogue reference M8631).
Melanin levels in each culture were expressed as values normalised to the amount of protein in the cultures and compared to control vehicle treated cultures. […]

The subject of another assay is B16 mouse melanoma cells. The assay can be described thus: Inhibition of pigment (melanin) production in B16 mouse melanoma cells. In kind it is cell-based. As to conditions: 72 h, 3 days incubation, average of 4 wells, read-out: % of melanin inhibition in B16 mouse melanoma cells assay compared to control, normalised to protein levels. The text has this: B16 mouse melanoma cells are widely available for example by purchase from the American Type Culture Collection (ATCC) and are routinely used by those skilled in the art to assay pigment production. The cells make and secrete melanin, a dark pigment, into the medium as the cells approach confluence. Methods for general cell culture may be easily accessed in text books and on-line (eg General Techniques of Cell Culture; M.A. Harrison and I.F. Rae Authors; Cambridge University Press ISBN 052157496X)
B16 mouse melanoma cells were maintained in cell culture and used for tests in antibiotic free Lonza Biowhittaker (BE12-662F) media (50ml fetal bovine serum and 5 ml I-glutamine (Sigma G7513) per 500 ml bottle).
The cells were maintained and grown at 37°C in an atmosphere of 5 % CO2. Trypsin/ethylene diamine tetraacetic acid (EDTA; Sigma T3924) and Dulbeccos Phosphate Buffered Saline (DPBS; Sigma D8537) were used to passage the cells as they approached ≥80 % confluence, diluting the cells by one tenth for maintenance culture.
For the pigment reduction assays, 48 well plates were seeded with 2.5 x 10^4 cells per well in phenol red-free, antibiotic-free medium (Sigma D1145) supplemented with foetal bovine serum and glutamine. Care was taken to make sure less adherent cells were not lost during the seeding process.
The plates were incubated overnight at 37°C/5 % CO2 atmosphere. The media was removed from the plates one-by-one and fresh media containing the test compound or control additions was added to each well. Compounds were prepared as stock solutions at 1000 fold higher concentration than that used for assay in dimethylsulphoxide (DMSO). Control media additions included 0.1 % DMSO, media alone and positive control(s) known to inhibit pigment production such as ketoconazole or 4-ethylresorcinol. The cells were incubated at 37°C/5 % CO2 atmosphere for a further 3 days. Cultures were assessed for melanin secretion into the medium and, as controls for toxicity of the added ingredients, for protein level and metabolic activity. A reduction in metabolic activity or protein levels is indicative of cell toxicity. The most desirable compounds therefore in the assay are those that show melanin production inhibition without loss of metabolic function or reduction in protein levels.
Media was removed from the cell plates and put into storage plates. The plates were sealed until assayed later in the day. Melanin was measured by determining optical density at 450 nm and making a comparison against melanin standards (Sigma M8631) made up anew on each day of testing. The standards used were 1000 µg/ml; 500 µg/ml; 250 µg/ml; 125 µg/ml; 62.5 µg/ml; 31.25 µg/ml; and 15.625 µg/ml.
Without delay, 100 µl of RIPA buffer (Sigma R0278) with protease inhibitor (Sigma S8830- use as per Sigma instructions) was added to the wells and the plates frozen at -20°C until the protein assessment was carried out. For example Pierce BCA Protein Assay (Thermo Scientific # 23225) can be used as per manufacturer's instructions with 10 µl of sample for each replicate.
Control and test melanin values were calculated as the average of results from 4 wells, corrected for protein levels in the cultures. The percent reduction in melanin production was calculated for each compound concentration, setting the melanin production of control incubations (vehicle alone) at 100%. Compound concentrations causing > 20% loss of WST activity are considered toxic and not considered to be effective melanin inhibitors. A compound causing > 10% reduction of melanin production into the medium was considered to be an inhibitor. Table 1: B16 mouse melanoma cells assay results for compounds of the first aspect of the invention

Regarding `COC(=O)c1ccc(CN/C(N)=N/N=C/c2cc3ccccc3o2)cc1` [NC-0521, (E)-1-amino-1-[(2E)-(1-benzofuran-2-ylmethylidene)hydrazinylidene]-N-[4-(methoxycarbonyl)benzyl]methanaminium iodide], the figures for the inhibition at 5 µM in the assay with Melanoderms™ and with B16 mouse melanoma cells were 35% and 64%, respectively. Besides, the inhibition (commonly the drop in the measured response relative to a control, in per cent) at 1 µM in the assay on B16 mouse melanoma cells stood at 46%.

Consider `N/C(=N\N=C\c1cc2ccccc2o1)NCc1ccccc1` [NC-0519, (E)-1-amino-1-[(2E)-(1-benzofuran-2-ylmethylidene)hydrazinylidene]-N-benzylmethanaminium iodide], for which, in the assay on Melanoderms™, the inhibition at 5 µM is 40% and the inhibition at 10 µM came out at 47%. In the assay on B16 mouse melanoma cells, the inhibition at 1 µM is 71% and the inhibition at 5 µM stood at 71%.

As to `COc1ccc(CN/C(N)=N/N=C/c2cc3ccccc3o2)cc1` [NC-0531, (E)-1-amino-1-[(2E)-(1-benzofuran-2-ylmethylidene)hydrazinylidene]-N-(4-methoxybenzyl)methanaminium iodide], in the assay on Melanoderms™, the inhibition at 5 µM worked out at 35% and the inhibition at 10 µM was 40%. For the same compound, in the assay with B16 mouse melanoma cells, the inhibition at 1 µM stood at 39% and the inhibition at 5 µM came to 39%.

On to `COC(=O)c1ccc(CN/C(N)=N/N=C/c2csc3ccccc23)cc1` [NC-0510, (E)-1-amino-1-[(2E)-(1-benzothiophen-3-ylmethylidene)hydrazinylidene]-N-[4-(methoxycarbonyl)benzyl]methanaminium iodide], for which, in the assay on Melanoderms™, the inhibition at 5 µM came out at 18% and the inhibition at 10 µM worked out at 19%. Further, in the assay with B16 mouse melanoma cells, the inhibition at 1 µM stood at 17% and the inhibition at 5 µM was determined as 29%.

Take `COC(=O)c1cccc(CN/C(N)=N/N=C/c2csc3ccccc23)c1` [NC-0525, (E)-1-amino-1-[(2E)-(1-benzothiophen-3-ylmethylidene)hydrazinylidene]-N-[3-(methoxycarbonyl)benzyl]methanaminium iodide]: in the assay on B16 mouse melanoma cells, the inhibition at 1 µM amounted to 18% and the inhibition at 5 µM amounted to 100%.

As to `N/C(=N\N=C\c1csc2ccccc12)NCc1ccc(Cl)c(Cl)c1` [NC-0515, (E)-1-amino-1-[(2E)-(1-benzothiophen-3-ylmethylidene)hydrazinylidene]-N-(3,4-dichlorobenzyl)methanaminium iodide], in the assay with B16 mouse melanoma cells, the inhibition at 1 µM was determined as 0% and the inhibition at 5 µM was 54%.

For `Cc1ccc2[nH]c3c(c2c1)CCC/C3=N/N=C(\N)NCc1c(Cl)cccc1Cl` [NC-0537, (E)-1-amino-N-(2,6-dichlorobenzyl)-1-{(2Z)-[6-methyl-2,3,4,9-tetrahydro-1H-carbazol-1-ylidene]hydrazinylidene}methanaminium iodide], in the assay with B16 mouse melanoma cells, the inhibition at 1 µM stood at 51% and the inhibition at 5 µM came to 37%.

As for `N/C(=N\N=C\c1csc2ccccc12)NCc1ccc(F)cc1` [NC-0517, (E)-1-amino-1-[(2E)-(1-benzothiophen-3-ylmethylidene)hydrazinylidene]-N-(4-fluorobenzyl)methanaminium iodide], in the assay on Melanoderms™, the inhibition at 5 µM was determined as 4% and the inhibition at 10 µM stood at 20%. In addition, in the assay with B16 mouse melanoma cells, the inhibition at 1 µM stood at 32% and the inhibition at 5 µM came to 35%.

Consider `N/C(=N\N=C\c1ccc(-c2ccncc2)cc1)NCc1ccc(O)cc1` [NC-0498, (E)-1-amino-N-(4-hydroxybenzyl)-1-{(2E)-[4-(pyridin-4-yl)benzylidene]hydrazinylidene}methanaminium iodide], for which, in the assay with Melanoderms™, the inhibition at 10 µM came out at 53%. For the same compound, in the assay with B16 mouse melanoma cells, the inhibition at 1 µM was 0% and the inhibition at 5 µM is 33%.

With `COC(=O)c1ccc(CN/C(N)=N/N=C/c2ccc3ccccc3n2)cc1` [NC-0511, (E)-1-amino-N-[4-(methoxycarbonyl)benzyl]-1-[(2E)-(quinolin-2-ylmethylidene)hydrazinylidene]methanaminium iodide], in the assay with Melanoderms™, the inhibition at 5 µM was determined as 27% and the inhibition at 10 µM stood at 19%. In addition, in the assay with B16 mouse melanoma cells, the inhibition at 1 µM was found to be 54% and the inhibition at 5 µM turned out to be 100%.

Regarding `COc1ccc(CN/C(N)=N/N=C/c2csc3ccccc23)cc1` [NC-0528, (E)-1-amino-1-[(2E)-(1-benzothiophen-3-ylmethylidene)hydrazinylidene]-N-(4-methoxybenzyl)methanaminium iodide], in the assay with B16 mouse melanoma cells, the inhibition at 1 µM turned out to be 3% and the inhibition at 5 µM came to 73%.

For `Cc1ccc2[nH]c3c(c2c1)CCC/C3=N/N=C(\N)NCc1ccc(F)cc1` [NC-0536, (E)-1-amino-N-(4-fluorobenzyl)-1-{(2Z)-[6-methyl-2,3,4,9-tetrahydro-1H-carbazol-1-ylidene]hydrazinylidene}methanaminium iodide], in the assay with B16 mouse melanoma cells, the inhibition at 1 µM was 24% and the inhibition at 5 µM came to 8%.

Consider `COC(=O)c1ccc(CN/C(N)=N/N=C/c2cc3ccccc3s2)cc1` [NC-0522, (E)-1-amino-1-[(2E)-(1-benzothiophen-2-ylmethylidene)hydrazinylidene]-N-[4-(methoxycarbonyl)benzyl]methanaminium iodide], for which, in the assay on Melanoderms™, the inhibition at 5 µM amounted to 34% and the inhibition at 10 µM was 31%. Besides, in the assay with B16 mouse melanoma cells, the inhibition at 1 µM was 59% and the inhibition at 5 µM came out at 53%.
